In publication PMC7901654, “Bioisosteric Discovery of NPA101.3, a Second-Generation RET/VEGFR2 Inhibitor Optimized for Single-Agent Polypharmacology” (Journal of Medicinal Chemistry, 2020):

Experiments:
MUSK = target: T1, MUSK (Homo sapiens, UniProt O15146); test: KinomeScan panel screen; type: binding; details: 100 nM, read-out: Percent Control
T1 construct: purchased DiscoveRx KINOMEscan (TRKA and CSF1R IC50 enzymes from Invitrogen)

BMX = target: T2, BMX (Homo sapiens, UniProt P51813); test: KinomeScan panel screen; type: binding; details: 100 nM, read-out: Percent Control
T2 construct: purchased DiscoveRx KINOMEscan (TRKA and CSF1R IC50 enzymes from Invitrogen)
T2 sequence (P51813 whole entry): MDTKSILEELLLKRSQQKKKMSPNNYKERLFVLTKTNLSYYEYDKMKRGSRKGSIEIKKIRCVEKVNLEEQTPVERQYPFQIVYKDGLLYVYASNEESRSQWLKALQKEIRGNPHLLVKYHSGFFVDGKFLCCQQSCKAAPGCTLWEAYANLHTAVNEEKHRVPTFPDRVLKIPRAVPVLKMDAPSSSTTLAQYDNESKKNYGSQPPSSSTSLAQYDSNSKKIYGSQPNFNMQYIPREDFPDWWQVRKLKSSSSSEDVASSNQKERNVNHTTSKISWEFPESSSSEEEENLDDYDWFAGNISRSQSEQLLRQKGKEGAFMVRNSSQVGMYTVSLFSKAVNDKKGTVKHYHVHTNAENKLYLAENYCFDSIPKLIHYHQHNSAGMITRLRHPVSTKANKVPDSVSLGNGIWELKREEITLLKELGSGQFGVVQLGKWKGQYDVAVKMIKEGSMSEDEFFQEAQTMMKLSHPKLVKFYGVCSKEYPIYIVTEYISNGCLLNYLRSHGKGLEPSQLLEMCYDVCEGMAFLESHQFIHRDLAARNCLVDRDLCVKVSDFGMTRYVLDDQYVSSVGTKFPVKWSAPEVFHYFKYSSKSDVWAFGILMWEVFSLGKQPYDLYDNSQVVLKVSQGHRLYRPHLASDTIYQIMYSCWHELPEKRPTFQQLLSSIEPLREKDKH

CSNK1A1 = target: T3, CSNK1A1 (Homo sapiens, UniProt P48729); test: KinomeScan panel screen; type: binding; details: CSNK1A1, 100 nM; read-out: Percent Control
T3 construct: purchased DiscoveRx KINOMEscan (TRKA and CSF1R IC50 enzymes from Invitrogen)
T3 sequence (P48729 whole entry): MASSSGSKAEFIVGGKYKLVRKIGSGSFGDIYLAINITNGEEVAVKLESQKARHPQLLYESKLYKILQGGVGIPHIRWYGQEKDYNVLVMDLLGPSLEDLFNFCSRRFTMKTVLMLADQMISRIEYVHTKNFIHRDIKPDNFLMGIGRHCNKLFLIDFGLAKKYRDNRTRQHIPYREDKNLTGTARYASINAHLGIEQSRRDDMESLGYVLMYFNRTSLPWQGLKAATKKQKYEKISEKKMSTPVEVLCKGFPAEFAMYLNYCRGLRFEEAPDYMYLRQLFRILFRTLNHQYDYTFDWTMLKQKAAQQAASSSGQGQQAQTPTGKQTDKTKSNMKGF

FER = target: T4, FER (Homo sapiens, UniProt P16591); test: KinomeScan panel screen; type: binding; details: 100 nM, read-out: Percent Control
T4 construct: purchased DiscoveRx KINOMEscan (TRKA and CSF1R IC50 enzymes from Invitrogen)
T4 sequence (P16591 whole entry): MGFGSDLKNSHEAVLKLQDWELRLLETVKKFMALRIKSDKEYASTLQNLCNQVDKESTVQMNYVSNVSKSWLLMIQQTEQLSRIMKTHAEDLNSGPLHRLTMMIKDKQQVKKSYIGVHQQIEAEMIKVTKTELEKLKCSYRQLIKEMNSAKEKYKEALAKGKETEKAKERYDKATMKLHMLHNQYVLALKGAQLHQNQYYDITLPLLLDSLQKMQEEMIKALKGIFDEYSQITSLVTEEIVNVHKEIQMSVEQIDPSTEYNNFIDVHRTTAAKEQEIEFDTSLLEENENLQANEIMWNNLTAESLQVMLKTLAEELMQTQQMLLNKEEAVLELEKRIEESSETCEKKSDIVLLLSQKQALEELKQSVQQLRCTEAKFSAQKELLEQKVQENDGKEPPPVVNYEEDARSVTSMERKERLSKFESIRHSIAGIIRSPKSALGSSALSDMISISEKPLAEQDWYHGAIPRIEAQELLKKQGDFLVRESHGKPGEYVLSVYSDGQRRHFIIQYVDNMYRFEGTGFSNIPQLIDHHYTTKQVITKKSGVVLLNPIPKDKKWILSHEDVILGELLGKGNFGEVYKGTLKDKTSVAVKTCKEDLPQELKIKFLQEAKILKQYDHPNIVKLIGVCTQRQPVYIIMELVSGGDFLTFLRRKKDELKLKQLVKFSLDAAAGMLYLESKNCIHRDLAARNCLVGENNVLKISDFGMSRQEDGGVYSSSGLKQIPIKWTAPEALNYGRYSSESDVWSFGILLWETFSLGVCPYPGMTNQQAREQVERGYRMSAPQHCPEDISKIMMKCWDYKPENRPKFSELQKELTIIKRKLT

human RET-negative cells = test: Cell growth curves, human RET-negative cells taken together; type: cell-based; details: read-out: IC50 dose, all human RET-negative cells
Procedure: The IC50 dose for all human RET-negative cells was >100.0 nM, confirming compound selectivity (Figure S8 and Table S4).
Nthy-ory-3-1 (10000 per well), TPC-1 (10000 per well), MZ-CRC-1 (100000 per well), TT (200000 per well), Lc-2/ad (100000 per well), BCPAP (10000 per well), 8505-C (10000 per well), PC-9 (10000 per well), A549 (10000 per well), CALU-1 (10000 per well), NIH3T3 RET/C634Y (10000 per well), and NIH3T3 HRAS/G12V (10000 per well) were seeded in six-well tissue culture plates. Cells were kept in 2% (TPC-1), 5% (Nthy-ori-3-1), or 10% (BCPAP, 8505-C, CALU-1, A549, PC-9, TT, MZ-CRC-1, and Lc-2/ad) fetal calf serum or in 2% (NIH3T3 RET/C634Y and HRAS/G12V) calf serum. Ba/F3 cells (200000 per well in 2 mL) were seeded in six-well tissue culture plates and kept in 10% fetal calf serum. The day after plating, different concentrations of the drug or vehicle were added to the medium and changed every 2–3 days. Cells were counted every day (Ba/F3), every 2 days (fibroblasts), or every 2–3 days (human cell lines). To compare cell growth, we performed an unpaired Student’s t test using the Instat software program (Graphpad Software Inc.). […] IC50 doses were calculated through a curve fitting analysis from last day of growth curves using the PRISM software program (Graphpad Software Inc.).

[1] = system: RET/M918T, RET/A883F, and RET/V804L/M; test: RET phosphorylation Western blot in RAT1 cells, other point mutants; type: cell-based; details: 2 h
Procedure: Fibroblasts transfected with RET/C634R were treated with increasing doses of NPA101.3, ranging from 0.1 to 10.0 nM. RET autophosphorylation was assessed by Western blotting using two different antibodies that can recognize phosphorylated Y905, located in the RET kinase activation loop, or Y1062, a multidocking site involved in RET downstream signaling.[41]
Figure 4 NPA101.3-mediated inhibition of phosphorylation and signaling of oncogenic RET mutants and VEGFR2 in intact cells. Serum-starved RAT1 cells exogenously expressing the (A and B) indicated RET point mutants or (C) NIH3T3 cells exogenously expressing the indicated RET rearranged mutants were treated for 2 h with the indicated concentrations of the compound. Total cell lysates (50 μg) were subjected to immunoblotting with anti-phospho-Y1062 (αp1062) and anti-phospho-Y905 (αp905) RET antibodies. The blots were normalized using the anti-RET (αRET) antibody. (D) HEK293 cells were transiently transfected with human VEGFR2; 36 h after transfection, cells were serum starved for 12 h. The indicated doses of the compound or vehicle (NT) were added for 2 h, and then VEGFA (100 ng/mL) stimulation was applied for 15 min. […]
Protein lysates were prepared according to standard procedures. […] Immune complexes were detected with the enhanced chemiluminescence kit (Amersham Pharmacia Biotech, Little Chalfont, U.K.). […]

T1 sequence (O15146 24-869): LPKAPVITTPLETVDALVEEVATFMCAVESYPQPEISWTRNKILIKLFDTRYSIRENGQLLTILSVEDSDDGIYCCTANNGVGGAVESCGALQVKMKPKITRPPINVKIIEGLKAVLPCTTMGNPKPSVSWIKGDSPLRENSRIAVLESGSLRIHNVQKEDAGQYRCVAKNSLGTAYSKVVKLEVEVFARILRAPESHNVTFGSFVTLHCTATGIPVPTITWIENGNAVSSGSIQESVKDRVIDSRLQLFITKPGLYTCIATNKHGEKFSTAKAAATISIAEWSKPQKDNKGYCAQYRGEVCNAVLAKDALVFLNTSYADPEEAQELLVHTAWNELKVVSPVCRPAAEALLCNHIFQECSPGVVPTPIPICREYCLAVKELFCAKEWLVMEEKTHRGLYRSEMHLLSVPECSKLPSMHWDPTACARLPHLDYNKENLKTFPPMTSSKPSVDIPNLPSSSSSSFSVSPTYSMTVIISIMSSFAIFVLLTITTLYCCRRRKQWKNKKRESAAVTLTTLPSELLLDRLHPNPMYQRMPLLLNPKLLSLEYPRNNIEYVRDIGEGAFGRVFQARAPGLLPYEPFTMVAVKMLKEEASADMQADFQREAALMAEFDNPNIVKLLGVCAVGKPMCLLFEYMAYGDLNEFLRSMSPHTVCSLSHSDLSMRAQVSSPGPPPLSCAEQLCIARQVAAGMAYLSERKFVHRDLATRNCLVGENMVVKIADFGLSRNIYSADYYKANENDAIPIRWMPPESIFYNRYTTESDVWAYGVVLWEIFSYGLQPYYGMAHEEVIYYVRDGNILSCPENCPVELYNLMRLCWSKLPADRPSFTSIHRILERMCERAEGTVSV

## CC(C)(C)c1cc(NC(=O)Cc2ccc(-n3cnc4cc(-c5ccc(S(C)(=O)=O)cc5)ccc43)cc2)no1 [NPA101.3]
MUSK
  remaining binding at 0.1 µM: 23%
BMX
  remaining binding at 0.1 µM: 94%
CSNK1A1
  remaining binding at 0.1 µM: 69%
FER
  remaining binding at 0.1 µM: 96%
Human RET-negative cells
  IC50: > 100 nM
[1]
  phosphorylation of other MTC-associated RET oncogenic point mutants: inhibited
